Source: publication PMC13201543 (Communications Biology, 2026)
“Also recorded” adds a separate entry of the source.

Columns and labels:
[1] = system: A*33; test: Surface plasmon resonance, immobilized A*33; type: binding, human; settings: for SPR binding to A*33 (in words): Biacore T200, recombinant A*33
[2] = system: A*24; test: Surface plasmon resonance, immobilized A*24; type: binding, human
[3] = system: C*07; test: Surface plasmon resonance, immobilized C*07; type: binding, human; settings: Biacore T200, recombinant C*07
[4] = target: recombinant C-terminal His-tag HLA-A*33 (human); test: SPR
[5] = target: recombinant His-tag HLA-C*07 (human); test: SPR
[6] = target: recombinant C-terminal His-tag HLA-A*24 (human); test: SPR

Molecule: SMFWPCLLR [SAG2C]
- SPR binding to A*33 (in words) [1]: higher binding affinity; also recorded: strong binding
- SPR binding to A*24 (in words) ([2]; Biacore T200, immobilized A*24, different concentrations of peptide): relatively weaker binding
- SPR binding response, A*24 compared with A*33 ([2]; SAG2C 100 μM (Fig. 6C.iii)): Distinct decrease in SPR binding response

Molecule: GNNQIDSTLKDLVEELSK [MSP3]
- SPR binding to A*33 (in words) [1]: relatively weaker binding
- SPR binding response, A*33 compared with C*07 ([1]; MSP3 100 μM (Fig. 8C.iii)): Distinct decrease in SPR binding response
- binding to C*07 (in words) [3]: strong binding affinity

B1: Plasmodium antigenic peptide MSP3 (peptide)
peptide: GNNQIDSTLKDLVEELSK
- SPR response at 200 uM [4]: 12 RU
- SPR response at 200 uM [5]: 60 RU

B2: Toxoplasma antigenic peptide SAG2C, wild type (peptide)
peptide: SMFWPCLLR
- SPR response at 200 uM [6]: 15 RU
- SPR response at 200 uM [4]: 150 RU
